Measurements from US11376257B2, “Generation of muscle lineage cells and therapeutic uses thereof” (GENEA BIOCELLS USA (HOLDINGS), INC., priority 2016, dated 2022).
Entries after “also recorded” stand apart in the source; their conditions may differ. Like-named read-outs stand apart in the source and are kept apart here.

Experiments:
[1] = test system: stem cell-derived myoblasts; details: for myotube morphology (visual) versus control cultures / production of myotubes with mature features (summary of FIGS. 10-18): 5 days; for production of myotubes with mature features (summary of FIGS. 10-18): different doses in Myotube Medium
Procedure: For screening, frozen satellite-like cells, prepared as described in Example 1, were thawed in a water bath at 37° C., resuspended in 3 mL of warm Myoblast Medium (Genea Biocells) and centrifuged at 400×g for 4 min. The supernatant was removed and the cell pellet was resuspended in 1 mL of medium for cell count. Cells were seeded at a density of 5,000 cells/cm^2 in collagen I-coated plastic flasks (Biocoat, BD Bioscience) and incubated at 5% CO2, 37° C. Every other day the culture medium was exchanged until cells reached a confluency of 80%, then cells were trypsinized, counted and seeded in collagen-coated 96-well plate (Biocoat) at density of 30,000 cells/cm^2 in Myoblast Medium using an automated liquid handling system (Fluent, Tecan Trading AG, Switzerland). Cells were incubated at 5% CO2, 37° C. and the medium was changed every other day until cells reached a confluence of 80%. The medium was exchanged for Myotube Medium (Genea Biocells) containing the test compounds. No further media changes were performed. In general, 3 to 6 concentrations were tested ranging from 3 μM to 1 nM; one plate per dilution was used. Media and DMSO control wells were placed randomly. No media changes were performed at this stage. After five days of myotube differentiation in the presence of compounds, cells were fixed with 10% formalin (Sigma) for 15 minutes at room temperature and washed once with phosphate-buffered saline (PBS). Next, cells were stained with an antibody specific for myosin heavy chain (Developmental Studies of Hybridoma Bank, University of Iowa, Iowa City; anti mouse A4.1519; dilution 1:1000) in PBS solution containing 5% bovine serum albumin (BSA, Sigma) and 0.3% Triton-X (Sigma) and incubated for 1 hour at room temperature. The cells were washed once with PBS and then incubated for 1 hour with a second antibody, Alexa Fluor 488-conjugated goat anti-mouse IgG (Invitrogen, 1:1000), and counterstained for nuclei with Hoechst 33342 (Molecular probes 1:5000) in a PBS solution containing 5% BSA and 0.3% Triton-X. Cells were washed with PBS prior microscopic analysis. Cells were imaged using an IN Cell Analyzer 6000 (GE-Healthcare) high content analysis system. Developer Toolbox v1.9.3 was utilized for image analysis to determine the number of nuclei, and the number of nuclei within MHC-positive myotubes. To evaluate the effect of compounds in either decrease or increase these measures untreated controls were set as the baseline.
Myoblasts were prepared or frozen myoblasts were thawed as described in Example 4. Once cultures reached confluency the medium was changed to Myotube Medium supplemented with 0.2, 0.5 or 1 μM CHIR-124 (Chk1 inhibitor). The cultures were left in an incubator at 37° C. and 5% CO2 for 5 days. […] Cells were fixed with 10% formalin (Sigma) for 15 minutes at room temperature and washed once with phosphate-buffered saline (PBS). Next, cells were stained for with antibodies specific for myosin heavy chain (Developmental Studies of Hybridoma Bank, University of Iowa, Iowa City; anti mouse A4.1519; dilution 1:1000) and MyoG (Santa Cruz, anti-rabbit; dilution 1:500) in PBS solution containing 5% bovine serum albumin (BSA, Sigma) and 0.3% Triton-X (Sigma) and incubated for 1 hour at room temperature. The cells were washed once with PBS and then incubated for 1 hour with a second antibody, Alexa Fluor 488-conjugated goat anti-mouse IgG and Alexa Fluor 647-conjugated anti-rabbit (both Invitrogen, 1:1000), and counterstained for nuclei with Hoechst 33342 (Molecular probes 1:5000) in a PBS solution containing 5% BSA and 0.3% Triton-X. Cells were washed with PBS prior to microscopic analysis. Cells were imaged using an IN Cell Analyzer 6000 (GE-Healthcare) high content analysis system.

[2] = test system: myoblasts from non-affected and genetic disease-affected hESC cell lines; test: Myotube formation in disease-affected and non-affected hESC-derived myoblasts with or without CHIR-124; type: cell-based, human; details: 0.5 μM CHIR-124, three days in Myotube Medium, all cell lines (unaffected, Huntington's, DM1, DM2, SMA, FSH, DMD)
Procedure: Myoblasts prepared via the method of Example 4 from two non-affected hESC cell lines (Genea002 and Genes019) and six verified genetic disease-affected cell lines (Genea020, Genea066, Gen103, Gen158, Gen049 and Gen159, described in Table 6 below) were thawed in Genea Biocells Myoblast Medium in 96-well microtiter plates at 3.0×10^4 cells/cm2 and incubated at 10% CO2, 37° C. Genea020 was derived from an embryo affected with Huntington's disease (48CAG repeat expansion in the Huntingtin gene). Genea066 was derived from an embryo affected with Myotonic Dystrophy type II. Genea103 was derived from an embryo affected with Spinal Muscular Atrophy. Genea158 was derived from an embryo affected with Myotonic Dystrophy type I. Genea049 was derived from an embryo affected with FSH Muscular Dystrophy. Genea159 was derived from an embryo affected with Duchenne muscular dystrophy. All hESC cell lines were derived according to approved ethical protocols from donated embryos. Once cells (myoblasts) were confluent (approximately on day 3) media was changed for Genea Biocells Myotube Medium, either alone or with 0.5 μM CHIR-124 (CHIR). […] Images were analyzed with IN Cell Developer Toolbox software (GE Healthcare). […] The ratio between area of MHC and nuclei (um2) was calculated by measuring the area per field divided by the number of nuclei within that field.

[3] = test system: myosin heavy chains (MHC) in Genea015 myoblast-derived myotubes; test: Western blot analysis of myosin heavy chain types in myotubes; type: cell-based, human
Procedure: Genea015 (a disease-unaffected hESC cell line) myoblasts prepared by the method of Example 4 were thawed and seeded at 30,000 cells/cm^2 in Genea Biocells Myoblast Medium and incubated at 37° C., 5% CO2 until confluent (approximately 2 days). Then media was changed for Genea Biocells Myotube Medium either alone or with […] CHIR-124. Cell lysates for protein analysis were collected 5 days after treatment with CHIR-124 and quantified by BCA assay (ThermoFisher). Western blotting (Wes, Protein Simple) was performed to analyze the expression of myosin heavy chains (MHC) that are expressed during development and maturation of myotubes (total MHC, or total myosin heavy chain; eMHC, or embryonic myosin heavy chain; fMHC, or foetal myosin heavy chain; pMHC, or perinatal myosin heavy chain; and fast MHC, or fast myosin heavy chain, the most mature MHC found in myotubes). MHC expression was normalized to Vinculin for quantification.

[4] = test system: Duchenne Muscular Dystrophy (DMD); test: Treatment of a Duchenne Muscular Dystrophy patient with a checkpoint inhibitor; type: in vivo, human; details: child with DMD
Procedure: A child diagnosed with Duchenne Muscular Dystrophy (DMD) is seen in a clinic for weakness in their calves and thighs.
A child diagnosed with Duchenne Muscular Dystrophy (DMD) is seen in a clinic for weakness in their calves and thighs. To treat the muscle weakness, the patient is administered 100 mg once daily of CHIR-124 or 50-75 mg twice daily of CHIR-124 for two months. At the initial appointment, skin fibroblasts are obtained from the patient. The fibroblasts are subsequently used to produce induced pluripotent stem cells (iPSCs), which are then genetically modified to remove a mutation associated with DMD. The iPSCs are then differentiated into satellite cells in vitro; and the satellite cells, in turn, are differentiated into myoblasts in vitro. The differentiated myoblasts are then administered in […] doses to the patient's thighs and calves once a week during the two month period.

[5] = 0.5 μM CHIR-124, 5 days, Genea015

In the case of CNC(=O)c1cc(Oc2ccc(NC(=O)Nc3ccc(Cl)c(C(F)(F)F)c3)cc2)ccn1 [sorafenib], the “myotube morphology (visual) versus control cultures” value ([1]; 0.1, 0.3 or 1 μM) is reported as “formed more and longer and thicker myotubes than control cultures” and the “production of myotubes with mature features (summary of FIGS. 10-18)” value (from here on “production of myotubes”) [1] is reported as “produce myotubes with mature features”.
With CN1[C@@H]2CC[C@H]1C[C@@H](OC(=O)C(CO)c1ccccc1)C2 (some centres unmarked) [atropine] the “myotube morphology (visual) versus control cultures” value ([1]; 0.2, 0.5 or 1 μM atropine) was “formed longer and thicker myotubes than control cultures”, the “number of myotubes observed” value ([1]; cultures incubated with atropine) was “overall fewer myotubes were observed” and the “production of myotubes” value [1] was “produce myotubes with mature features”.
In the case of CC(C)c1noc(N2CCC(COc3ccc(-c4ccc(S(C)(=O)=O)cc4)nc3)CC2)n1 [GSK1292263], the “myotube morphology (visual) versus control cultures” value ([1]; 0.1, 0.3 or 1 M) is reported as “formed longer and thicker myotubes than control cultures” and the “production of myotubes” value [1] is reported as “produce myotubes with mature features”.
For Cn1cnc2c(F)c(Nc3ccc(Br)cc3F)c(C(=O)NOCCO)cc21 [MEK162, binimetinib], the “myotube morphology (visual) versus control cultures” value ([1]; 0.1, 0.3 or 1 μM) was “formed more and longer and thicker myotubes than control cultures” and the “production of myotubes” value [1] was “produce myotubes with mature features”.
For O=c1[nH]c2ccc(Cl)cc2c(NC2CN3CCC2CC3)c1-c1nc2ccccc2[nH]1 (centres unmarked) [CHIR-124], the “myotube morphology (visual)” value ([1]; 0.2 μM, 0.5 μM, or 1 μM CHIR-124, 5 days) was “formed thick, large myotubes”, the “number of myotubes observed” value ([1]; 1 μM CHIR-124, 5 days) was “overall fewer myotubes were observed” and the “larger average myotube diameter compared to myotubes formed in the absence of CHIR-124” value ([1]; 0.2 or 0.5 μM CHIR-124, 5 days) was > 80%. For the same compound, the “average number of nuclei per myotube” value ([1]; 0.2 or 0.5 μM CHIR-124, 5 days, 2 without CHIR-124) was “about 4”, the “mean area of myotubes (FIG. 10D, lower panel)” value ([1]; CHIR-124, 5 days) was “Increases” and the “myotube area (FIG. 10C, lower panel)” value ([1]; CHIR-124, 5 days) was “Increases”. For the same compound, the “number of cells with larger myotube area (FIG. 10D, upper panel)” value ([1]; CHIR-124, 5 days) was “Increases”, the “number of cells with more than one nucleus (FIG. 10B, lower panel)” value ([1]; CHIR-124, 5 days) was “Increases” and the “production of myotubes” value [1] was “produce myotubes with mature features”. For the same compound, the “nuclei contained in many myotubes” value ([1]; exposed to CHIR-124, untreated controls few cells exceeding 10-12 nuclei) was “more than 30”, the “myotube formation as MHC staining area normalized to cell number (nuclei)” value [2] was “improved myotube formation; also recorded: improvements in differentiation” and the “myotube formation as MHC staining area normalized to cell number (nuclei)” value ([2]; listed as CHIR124) was “higher”. The “expression of fast MHC (fast myosin heavy chain)” value [3, 5] was “increases in expression”, the “expression of total MHC normalized to Vinculin” value [3, 5] was “increases expression” and the “expression of pMHC (perinatal myosin heavy chain)” value ([3]; 0.5 M CHIR-124, 5 days, Genea015) was “increases in expression”. The “expression of the most mature forms of MHC (FIG. 20)” value ([3]; in the presence of CHIR-124) was “increased expression”, the “symptoms of muscle weakness” value ([4]; 100 mg once daily or 50-75 mg twice daily for two months) was “symptoms of muscle weakness improve” and the muscle tone ([4]; CHIR-124 for two months combined with genetically modified iPSC-derived myoblasts once a week) was “improved muscle tone”.
CC[C@@H]1C(=O)OC[C@@H]1Cc1cncn1C [pilocarpine] was tested, and the “myotube morphology (visual) versus control cultures” value ([1]; 0.1, 03 or 1 μM pilocarpine) was “formed longer and thicker myotubes than control cultures” and the “production of myotubes” value [1] was “produce myotubes with mature features”.
For talazoparib, the “myotube morphology (visual) versus control cultures” value ([1]; 0.1, 0.3 or 1 μM Talazoparib) was “formed more and longer myotubes than control cultures” and the “production of myotubes” value [1] was “produce myotubes with mature features”.
In the case of CO[C@H]1C[C@@H]2CC[C@@H](C)[C@@](O)(O2)C(=O)C(=O)N2CCCC[C@H]2C(=O)O[C@H]([C@H](C)C[C@@H]2CC[C@@H](O)[C@H](OC)C2)CC(=O)[C@H](C)/C=C(\C)[C@@H](O)[C@@H](OC)C(=O)[C@H](C)C[C@H](C)/C=C/C=C/C=C/1C [rapamycin], the “myotube morphology (visual) versus control cultures” value ([1]; 0.1, 0.3 or 1 μM) is reported as “formed more and longer and thicker myotubes than control cultures” and the “production of myotubes” value [1] is reported as “produce myotubes with mature features”.
With COc1ccncc1C(=O)NC(=O)Nc1ccc(-c2ccccc2)c(C(F)(F)F)c1 [TC-G 1006] the “myotube morphology (visual) versus control cultures” value ([1]; 0.1, 0.3 or 1 M) was “formed longer and thicker myotubes than control cultures” and the “production of myotubes” value [1] was “produce myotubes with mature features”.
